Literature values as cited in patent publication US20020016334A1, “Pharmaceutical composition for the treatment of attention deficit hyperactivity disorder (ADHD)” (priority 2000, published 2002).

Experiments:
clinical ADHD symptoms = settings: humans (Levin et al. 1996)
working memory deficits = settings: brain-lesioned rats (Levin et al. 1993)
[1] = tested on: performance on serial choice tasks; settings: animal studies (Muir et al. 1995)

CN1CCCC1c1cccnc1 (stereo not drawn) [nicotine]
Effect on clinical ADHD symptoms by Clinical Global Impression scale (clinical ADHD symptoms): significantly improves | Effect on deficits in working memory (working memory deficits): reverse deficits in working memory | Effect on performance on serial choice tasks [1]: improves performance
